From article PMC13288645, “A cryopreserved and in vivo-in vitro validated human induced pluripotent stem cell blood-brain barrier model for reliable neurotoxicity assessment” (NAM journal, 2025)
Where “and” joins values, the source holds several entries; their conditions need not be identical. Equal entries are not always repeated.

Key:
[1] = system: hiPSC-derived blood-brain barrier model; details: human
rats = details: oral dosing, ref Amaraneni et al., 2016, Kim et al., 2008, 2007; cited from earlier work
[2] = system: hiPSC-derived blood-brain barrier model; assay: Bioavailable radioactivity of [benzyl-14C]-Deltamethrin in the transwell media by liquid scintillation counting; details: 1h, per replicate, listed as [benzyl-14C]-Deltamethrin
BBB [3] = assay: Prediction of human in vivo K1 from in vitro Papp with the linear model
in vitro = details: human
Text: All human iPSC-derived blood-brain barrier cells (Brain Microvascular Endothelial Cells (BMECs), Astrocytes and Pericytes (AP)), media (BMEC maintenance medium and AP medium), and media supplements (plating supplement 500X) have been purchased from Fujifilm Cellular Dynamics Inc. (FCDI, Madison, WI, US, catalogue: R1241). The respective certificates of analysis, including cell characterization data, can be accessed in Supplementary Data File 1. All cells were derived from the same proprietary donor. […] All additional experiments included 96-transwell® membranes only. […] BMEC maintenance medium contained only 1 % P/S without supplements. Unless stated differently, transwell® compartment volumes were used as recommended by Corning including 75 µL apically and 235 µL basolaterally for 96-transwells® as well as 300 µL apically and 1000 µL basolaterally for 24-transwells®.
On day −2, 24-transwells® were coated apically with Collagen IV-Fibronectin coating solution and stored overnight at 4 °C (Fig. 1A). In contrast, 96-transwells® were first flipped upside down, and coated with 50 µL Fibronectin-Collagen IV solution on the basolateral side for 4 h at 37 °C and 5 % CO2 and stored overnight at 4 °C (Fig. 1B). On day −1, 24-transwells® were flipped upside down and coated with 100 µL of a 0.1 % Gelatin solution for 0.5 h at room temperature (RT) before replacement with 100 µL of the AP seeding solution containing 1.1 × 10^6 astrocytes/mL and 2.2 × 10^6 pericytes/mL in AP plating medium. After seeding, cells were incubated to attach for 4 h at 37 °C and 5 % CO2 and then flipped back to normal orientation. […] In both cases, Collagen IV-Fibronectin coating solution was replaced with AP plating medium. […] Here, cells were incubated to attach for 4 h at 37 °C and 5 % CO2 before flipping the transwells® slowly back to normal orientation. To inspect the cell layers for obvious leakages or cell detachment, blank transwell® filters and fully assembled models were observed under a Zeiss Primovert microscope (Carl Zeiss Microscopy GmbH, Jena, Germany) (Supplementary Figure 1). On day 1, BMEC plating medium was replaced by BMEC maintenance medium. After 24 h at 37 °C and 5 % CO2 barrier integrity was evaluated to consider only highly restrictive BBB models for pharmaceutical permeability testing.
After 60 min at 37 °C, 5 % CO2 and 100 rpm shaking on an orbital shaker, 50 µL were sampled from the donor and acceptor (containing APs) compartment. Following a transfer to 96-well plates, samples were diluted 1:1 with 50 µL of DPBS.
With cac being the analyte concentration in the acceptor compartment (µM), t the duration of the incubation (s, here 3 600 s), A the surface area of the respective transwell® membrane (cm^2), Vac the volume of the acceptor compartment (mL) and cdc the applied concentration in the donor compartment (µM). Papp was reported as the average of triplicate 24-transwell® models and six 96-transwell® model replicates.
Additional compound data, including final solvent concentrations and physicochemical properties, were summarized in Supplementary Table 1. After 60 min at 37 °C, 5 % CO2 and 100 rpm shaking on an orbital shaker, 50 µL were sampled from the acceptor and donor compartments of quadruplicate BBB models as well as cell-free controls.
Then, all samples were subject to protein precipitation with acetonitrile:methanol 50:50 (v/v). After centrifugation for 10 min at 10 000 × g, supernatants were transferred to new vials and subsequently evaporated to dryness. […] Derivatization was executed in a ThermoMixer C (Eppendorf, Hamburg, Germany) at 65 °C and 600 rpm for 15 min. After evaporating samples to dryness again, final reconstitution was performed as described above.

BBB [4] = details: cited from earlier work; for In vivo human rate constant for compound transfer from blood across the BBB into brain (K1): human clinical PET, ref Ghazanfari et al. 2024, Le Roux et al. 2019
[5] = source not stated; cited from earlier work
hiPSC-derived BBB = system: hiPSC-derived BBB; design: method as in Le Roux et al., 2019; details: high in vitro permeability not confirmed by this study; ref Le Roux et al., 2019; cited from earlier work
[6] = male, in vitro apparent permeability Papp
[7] = male, in vitro apparent permeability Papp, 96-transwell hiPSC-derived BBB, 60 min, 5 µM (17β-Estradiol 10 µM, Deltamethrin 3 µM)
[8] = In vitro hiPSC-derived blood-brain barrier model apparent permeability (Papp)

Row | SMILES | Papp at 60 min (in vitro; [6]) [×10⁻⁶ cm/s] | In vivo human rate constant for compound transfer from blood across the BBB into brain (K1) (BBB [4]) [mL min^-1 cm^-3] | LogP [5] | Papp at 60 min (in vitro; male) [×10⁻⁶ cm/s] | Papp at 60 min (in vitro; [7]) [×10⁻⁶ cm/s] | Papp at 60 min (in vitro; [8]) [×10⁻⁶ cm/s] | other results
1 | CC1(C)[C@H](C(=O)O[C@H](C#N)c2cccc(Oc3ccccc3)c2)[C@@H]1C=C(Br)Br [Deltamethrin] | 0.979 |  |  |  |  |  | Bioavailable [benzyl-14C]-Deltamethrin [1]: 786.44 Bq; brain entry and neurotoxic effects in rats (rats): entered the brain and exhibited neurotoxic effects only after 10 mg/kg oral dosing; Radioactivity Sample apical ([2]; BBB model, acceptor compartment): 1.40 Bq and 1.53 Bq and 1.70 Bq and 2.08 Bq; Radioactivity Sample basolateral ([2]; BBB model, donor compartment): 737.12 Bq and 789.28 Bq and 793.66 Bq and 818.98 Bq; Radioactivity Blank apical ([2]; cell-free control transwell with compound, acceptor compartment): 3.00 Bq and 3.65 Bq and 3.95 Bq and 2.93 Bq; Radioactivity Blank basolateral ([2]; cell-free control transwell with compound, donor compartment): 762.65 Bq and 864.27 Bq and 830.94 Bq and 846.43 Bq; predicted in vivo K1 (BBB [3]; after insertion of Papp into the linear model): −0.099 mL cm^-3 min^-1; Prediction of K1 (BBB [3]; human in vivo K1 predicted from in vitro Papp with the linear model): -0.099 mL min^-1 cm^-3
2 | CN(C)C(=O)C(CCN1CCC(O)(c2ccc(Cl)cc2)CC1)(c1ccccc1)c1ccccc1 [Loperamide] |  | 0.002 | 5.13 | 6.75 | < 15 |  | human in vivo K1 (clinically shown to enter the human brain relatively poorly) (BBB [4]; human, ref Bauer et al., 2015, Traxl et al.): < 0.05 mL cm^-3 min^-1
3 | CCN1CCC[C@H]1CNC(=O)c1c(O)c(Cl)cc(Cl)c1OC [Raclopride] | > 15 | 0.09 |  |  |  | 16.8 | 
4 | CCOC(=O)c1ncn2c1CN(C)C(=O)c1cc(F)ccc1-2 [Flumazenil] |  |  | 1.9 |  |  |  | 
5 | C[C@]12CC[C@@H]3c4ccc(O)cc4CC[C@H]3[C@@H]1CC[C@@H]2O [17β-Estradiol] | > 15 | 0.24 |  |  |  | 16.9 | human in vivo permeability K1 (elevated) (BBB [4]; human, ref Delforge et al., 1995, Le Roux et al., 2019, Zubieta et al., 2000): > 0.1 mL cm^-3 min^-1
6 | C#Cc1cccc(Nc2ncnc3cc(OCCOC)c(OCCOC)cc23)c1 [Erlotinib] |  | 0.02 |  | 12.1 | < 15 |  | in vitro permeability Papp in previous hiPSC-derived BBB results (hiPSC-derived BBB): > 15 × 10^–6 cm/s
